System: Plasmodium falciparum
Assay: GSK_TCMDC: Inhibition of Plasmodium falciparum 3D7 in whole erythrocytes, using parasite LDH activity as an index of growth.
Format: functional, organism-based
Details: Plasmodium falciparum, 3D7

Compound | XC50 [nM]
Nc1cc(/C=C/c2ccc([N+](=O)[O-])s2)nc2ccccc12 | 760
C=C1C(C(=O)OCC)=CN(CC)c2cc(O[C@@H]3CCN(C(=O)OC(C)(C)C)C3)ccc21 | 290
Cc1ccc(CN2CCN(c3cc4c(cc3Cl)CCN4C(=O)Cc3ccc(Cl)c(NC(=O)Nc4cccc(C#N)c4)c3)CC2)cc1 | 1130
CNc1c2c(nc3ccc(NC(=O)CCCCCCc4ccccc4)cc13)CCCC2 | 915
CCCCCCCCNCC(O)c1ccc(Cl)c(Cl)c1 (stereo not drawn) | 819
COc1ccc(Cl)cc1NC(=O)C(C)N1CCN(S(=O)(=O)c2ccccc2F)CC1 (stereo not drawn) | 672
Oc1cccc(C2CCCN(CCc3c[nH]c4ccccc34)C2)c1 (stereo not drawn) | 857
COc1ccc(NC(=O)c2ccc(Br)c(C)c2)cc1N1CCN(Cc2ccccc2)CC1 | 918
CN1CCN(CC(=O)Nc2cccc(-c3cccc(-c4nc5ccccc5[nH]4)c3)c2)CC1 | 1290
COc1cccc(NC(=O)NC2CCN(c3ccnc(Nc4ccc(F)cc4)n3)C2)c1 (stereo not drawn) | 570
COc1cc(NC(=O)c2sc(-c3ccc(Cl)cc3)cc2Cl)ccc1OCCN1CCCC1 | 976
Cc1cccc2nc(-c3cccc(-c4cccc(NC(=O)c5ccc(C(N)=O)cc5)c4)c3)[nH]c12 | 323
Cc1cccnc1Nc1nc(-c2ccccn2)cs1 | 687
Cc1[nH]c(C)c(-c2ccc(-c3ccccc3C(F)(F)F)nc2)c(=O)c1Br | 168
COc1ccc(N2CCN(CCCCNC(=O)c3ccc(NC(=O)c4ccc(C(F)(F)F)cc4)cc3)CC2)c(OC)c1 | 593
COc1cc(CNC2Cc3ccccc3C2)ccc1Oc1ccc2nc[nH]c2c1 | 949
Cc1ccc([N+](=O)[O-])cc1NC(=O)N(CC(O)c1ccccc1)C1CCCCC1 (stereo not drawn) | 730
CCc1ccc(CN2CCC(C(=O)Nc3ccc(-c4nc5ccccc5[nH]4)cc3)CC2)o1 | 610
Cc1[nH]c(C)c(-c2ccc(OCc3ccc(F)cc3)nc2)c(=O)c1Br | 203
Cc1cc(-c2cc(Cl)ccc2Cl)no1 | 168
COc1cc(NC(=O)c2cccs2)c(OC)cc1NC(=O)Nc1cccc(Cl)c1 | 1000
C=CCNC(=O)CCCNC(=N)N | 717
CCCCCc1cc(OCCN(C)C)cc2c1C(=O)CC(C)(C)O2 | 103
COc1ccc(-c2ccc(NC(=O)c3ccc(C#N)cc3)cc2)cc1CN1CCCC1 | 873
O=C(/C=C/c1ccc(Cl)c(Cl)c1)NC1CCN(Cc2ccc(O)cc2)CC1 | 691

Compound | XC50 [nM]
CC(C)CNCc1cccc(-c2cccc(CNC3CCN(Cc4ccccc4)CC3)c2)c1 | 183
CC1CN(C(=O)c2sc3ccccc3c2Cl)CC(C)O1 (stereo not drawn) | 87.9
CN(C)c1ccc2c(c1)Sc1cc(N(C)C)ccc1N2C(=O)c1cccc(C(=O)O)c1 | 184
CNC(=O)c1cncc(/C=C/c2ccccc2S(N)(=O)=O)c1 | 694
COc1ccc(N2CCN(CCCC/C=C/c3ccc(NC(=O)c4cc(Cl)cc(Cl)c4)cc3)CC2)c(OC)c1 | 660
O=C(NC1CC1)c1cnc(N2CCC(Cc3ccccc3)CC2)c(Cl)c1 | 672
CCN1CCN(CCCCNc2c3ccccc3nc3ccccc23)CC1 | 860
CC(=O)Nc1ccc(C(=O)Nc2cccc(-c3cccc(-c4nc5cccc(C)c5[nH]4)c3)c2)cn1 | 64.7
CC=CC1CCNC(C(O)c2ccnc3ccc(OC)cc23)C1 (stereo not drawn) | 1090
O=c1cc(NCCCCNCc2cccc(C(F)(F)F)c2)[nH]c2ccccc12 | 789
CN1CCC(c2c[nH]c3ccc(NC(=O)Nc4ccc(-c5ccncc5)cc4Cl)cc23)CC1 | 836
c1ccc(CN2CCC(NCc3ccccc3-c3cccc(CNC4CCCC4)c3)CC2)cc1 | 718
CC(C)CC(=O)NC1CCN(Cc2c(-c3cccs3)nc3ccccc3c2C(=O)N[C@@H](C)C2CCCCC2)CC1 | 819
CCc1cc([C@H]2O[C@@H](n3cnc4c(NCC(c5ccccc5)c5ccccc5)nc(NCCNc5ccccn5)nc43)[C@H](O)[C@@H]2O)on1 | 891
CCCCCCc1cc(O)c2c3c(c(=O)oc2c1)CCN(C)C3 | 671
Cc1ccc(NC(=O)c2ccc(CN3CCCN(CCC(C)C)CC3)cc2)cc1F | 609
Cc1cccc2nc(-c3ccc(-c4ccc(CN5CCN(CC6CCCN(C)C6)CC5)cc4)s3)[nH]c12 (stereo not drawn) | 142
C=C[C@H]1CN(CCCCCCC)CC[C@H]1CCN(C)c1ccnc2ccc(OC)cc12 | 446
Oc1ccc2[nH]c(-c3cccc(F)c3)nc2c1CN1CCC(O)(c2ccccc2)CC1 | 994
Cc1nc(C)c(-c2cccc(Oc3ccc(Cl)cc3)c2)c(O)c1Br | 73.6
Cc1cc(N2C(N)=NC(N)=NC2(C)C)ccc1Cl | 20.9
CCCCN(Cc1cc(Cl)c(OCC)c(OC)c1)c1ccc(C(O)(C(F)(F)F)C(F)(F)F)cc1 | 915
CCC(C)OC(=O)C1=C(C)NC2=C(C(=O)CC(c3ccc(OC)c(OC)c3)C2)C1c1ccc(O)cc1 (stereo not drawn) | 218
CCN1C(=O)C(CC(=O)Nc2cccc(Cl)c2)N(Cc2ccc(OC)c(OC)c2)C1=S (stereo not drawn) | 607
Cc1c(CC(=O)NCCC2CCN(CCCCCNC(=O)/C=C/c3ccc(Cl)c(Cl)c3)CC2)sc2ccc(Cl)cc12 | 880

Compound | XC50 [nM]
O=C(Nc1ccc(F)c(F)c1)c1ccc(CN2CCCN(Cc3cccc(O)c3)CC2)cc1 | 836
COc1ccc2nc(N3CCNCC3)nc(NCCCc3ccccc3)c2c1 | 1000
CC(C)(C)OC(=O)C1CCCN(Cc2ccc(-c3cccc(-c4nc5ccccc5[nH]4)c3)cc2)C1 (stereo not drawn) | 358
CC(C)CCN1CCC(Oc2ccc(NC(=O)c3ccc4ncccc4c3)cc2Cl)C1 (stereo not drawn) | 974
CC1(C)NC(N)=NC(=N)N1OCCCOc1cc(Cl)ccc1Cl | 3.2
COc1ccc2nccc(N3CCC(CCNCc4ccc5c(n4)NC(=O)CS5)CC3)c2c1 | 209
CCN(CC)CCCN(C(=O)Nc1c(Cl)cncc1Cl)c1nc(-c2ccc(F)cc2)cs1 | 241
CCCCCCN1CCC(NCc2ccc(C)cc2)CC1 | 860
COc1ccc2nccc([C@@H](O)CN3CCC(NCc4cc5cccc(OC)c5o4)CC3)c2c1 | 794
Cc1ccoc1C(=O)Nc1cccc(-c2cccc(-c3nc4ccccc4[nH]3)c2)c1 | 1220
CC(C)NC(C)(C)CN(Cc1ccc(-c2ccc(C(F)(F)F)cc2)cc1)C(=O)Cn1c(CCc2cccc(F)c2F)nc(=O)c2ccccc21 | 908
O=C(NC1CCC(CN2CCC(c3c[nH]c4ccccc34)CC2)CC1)c1cnn(-c2ccccc2)c1-c1ccccc1Cl (stereo not drawn) | 182
CC(Cc1ccc(NC(=O)CCCc2ccccc2)cc1)NCCc1cccc(Cl)c1 (stereo not drawn) | 945
N#Cc1ccc(-c2ccc(C(=O)NCC3CCN(CCN4CCC(c5ccc6c(c5OCC(N)=O)CCCC6)CC4)CC3)cc2)cc1 | 443
COc1ccc(C2CC(c3cccs3)=NN2C(=O)CNc2cccc(C#N)c2)cc1OC (stereo not drawn) | 1450
CC(Cc1ccc(NC(=O)c2ccc(NCCc3ccccc3)cc2)cc1)NCCc1cccc(Cl)c1 (stereo not drawn) | 854
O=C(NC1CCCCC1)N(Cc1cccc(-c2ccc(CNC3CCCC3)cc2)c1)C1CCN(Cc2ccccc2)CC1 | 951
CC(=O)Nc1ccc(C(=O)Nc2cccc(-c3csc(-c4nc5ccccc5[nH]4)c3)c2)cn1 | 119
C=CCNS(=O)(=O)c1ccc(NC(=O)C(C)Oc2ccc([N+](=O)[O-])cc2)cc1 (stereo not drawn) | 1220
CS(=O)(=O)Nc1ccc2[nH]cc(C3CCN(CC(O)C4CCN(C(=O)/C=C/c5ccc(Cl)c(Cl)c5)CC4)CC3)c2c1 (stereo not drawn) | 1760
CCC(C)CN1CCN(c2ccc(NC(=O)c3cccs3)cc2)C(C)C1 (stereo not drawn) | 544
O=C1C2C3SC(c4c3ccc3ccccc43)C2C(=O)N1c1ccccc1 (stereo not drawn) | 770
O=C(COc1ccccc1)Nn1cnc2ccccc21 | 1050
CC(C)Sc1nncc(-c2cnnc(SC(C)C)n2)n1 | 141
COc1ccc2c(=NN=Cc3ccncc3)cc(C)[nH]c2c1 | 814

Compound | XC50 [nM]
CCCCOc1ccc(C(=O)C(CCC(CNC(C)(C)C)C(=O)c2ccc(OCCCC)cc2)CNC(C)(C)C)cc1 (stereo not drawn) | 1020
O=C(COc1cnc2ccccc2n1)Nc1ccccc1Sc1ccc(Cl)cc1 | 728
CCOc1cc(C(=O)NC2CC(C)(C)NC(C)(C)C2)ccc1-c1cc2cc(Cl)c(Cl)cc2[nH]1 | 770
CCCCOC(=O)NCCCC[C@H](NC(=O)OC(C)(C)C)C(=O)N[C@H](C(=O)OC(c1ccccc1)c1ccccc1)[C@H]1O[C@@H](n2ccc(=O)[nH]c2=O)[C@@H]2OC(C)(C)O[C@@H]21 | 1090
Cc1cc(N2CCC(NS(=O)(=O)c3cccc4cccnc34)CC2)nc(Nc2cccc(C#N)c2)n1 | 748
c1ccc2[nH]c(-c3ccc(-c4ccc(CN5CCC(N6CCCCC6)CC5)cc4)s3)nc2c1 | 153
Cc1cccc(Cn2ccc3c4c(N)nc(N)nc4ccc32)c1 | 7.35
CCCCc1ccc2[nH]cc(C3=CCN(C)CC3)c2c1Br | 627
Cc1cccc2nc(-c3ccc(-c4ccc(NC(=O)Nc5ccc(Cl)cc5)cc4)cc3)[nH]c12 | 100
COC(=O)c1cccc(OCCNC2CCN(C[C@H](O)c3ccnc4ccc(OC)cc34)CC2)c1 | 342
CC(=O)Nc1cc(C(=O)Nc2cccc(-c3csc(-c4nc5ccccc5[nH]4)c3)c2)ccc1C | 465
CC(C)CNCc1cccc(-c2ccccc2CN(C(=O)Nc2ccccc2)C2CCN(Cc3ccccc3)CC2)c1 | 642
O=S(=O)(NCCN1CCCC1)c1ccc(-c2cccc(CNC3Cc4ccccc4C3)c2)cc1 | 618
COc1cc(NC(=O)c2cccc([N+](=O)[O-])c2)cc(S(=O)(=O)c2ccc(Cl)cc2)c1 | 1130
O=S(=O)(c1cc(Cl)sc1Cl)N(CCC(O)(C(F)(F)F)C(F)(F)F)Cc1cccc(O)c1 | 744
COc1ccc2nccc([C@@H](O)CN3CCC(NC(=O)/C=C/c4ccc5[nH]c(=O)ccc5c4)CC3)c2c1 | 967
COc1ccc(NC(=O)/C=C/c2cc(Br)ccc2F)cc1OCCN(C(C)C)C(C)C | 757
CN(C)c1ccc(-c2ccc(C(=O)NC3CCN(Cc4ccccc4)CC3)s2)cc1 | 1050
Nc1ncc(-c2ccccc2)cc1-c1nc2cc(Cl)c(F)cc2[nH]1 | 263
O=S(=O)(NCCN1CCCC1)c1ccc(-c2ccc(CNC3Cc4ccccc4C3)cc2)cc1 | 664
Cc1cc(N2CCCC2)nc(Nc2ccc(NC(=O)C(C)C)cc2)n1 | 1100
C=CC[C@@H](C(=O)OCC)[C@@H]1[C@@H](N(CC=C)C(=O)OC(C)(C)C)CCN1C(=O)OCc1ccccc1 | 964
Cc1cc(N)c2cc(NC(=O)/C=C/c3ccccc3)ccc2n1 | 757
